The values that follow come from patent US12528796B2, “Modulators of RAS GTPase” (Tosk, Inc., priority 2019, dated 2026).

This experiment has as its system SW620 cells (KRAS-G12V). The experiment in a line: Cell proliferation / cytotoxicity assay (CellTiter-Glo 2.0). The class given is cell-based. Conditions: Homo sapiens, SW-620, 72 h, SW620 cell line (KRAS-G12V), 72 hours incubation, luminescence (CellTiter-Glo 2.0); read-out: 5W620 IC50. The method, then: Compounds are assayed for inhibition of cell proliferation and killing cancer cells. Cytotoxicity assays are conducted according to the following general procedure. SW620 cells (ATCC CCL-227) are maintained in DMEM Low Glucose (Corning 10-014-CV) media supplemented with 10% fetal bovine serum and 1% PenStrep and grown at 37° C. in 5% CO2. Cells are plated into 96 well flat bottom plates (2 million/plate, ˜20,000/well, 200 μL media/well). The cells are allowed to settle and adhere to the plate bottom overnight. Compounds are diluted in media from a 10 mM stock solution starting at 50 μM, using 2-fold dilutions, in a column in a 96-well plate. Media is removed from the plate containing cells and replaced with media containing diluted compounds. Plates are incubated 72 hours at 37° C. in 5% CO2. Plates were allowed to come to room temperature and 100 μL CellTiter-Glo 2.0 reagent (Promega, G924C) is added at room temperature. Plates are shaken for 2 minutes, then allowed to stand for 15 minutes. Luminescence is read with FLx800 (BioTek Instruments). Data is plotted with GraphPad Prizm 8.0.
Dose response curves for the cytotoxicity of exemplary compounds against SW620 (KRAS-G12V) and MIA PaCa-2 (KRAS-G12C) cell lines are shown in FIG. 1A-1J.
As for `Cc1nc(NC2CCN(C(=O)c3ccc(Cl)cc3)CC2)nc2ccc(-c3cccc4c3OCCO4)cc12` [Compound 2, (4-chlorophenyl)(4-((6-(2,3-dihydrobenzo[b][1,4]dioxin-5-yl)-4-methylquinazolin-2-yl)amino)piperidin-1-yl)methanone], the IC50 is 5 to 10 µM.

Turning to `Cc1nc(NC2CCN(Cc3ccc(Cl)cc3)CC2)nc2ccc(-c3cccc4c3OCCO4)cc12` [Compound 3, N-(1-(4-chlorobenzyl)piperidin-4-yl)-6-(2,3-dihydrobenzo[b][1,4]dioxin-5-yl)-4-methylquinazolin-2-amine], the IC50 is below 5 µM.

Consider `Cc1nc(NC2CCN(Cc3ccc(Cl)cc3)CC2)nc2ccc(-c3cccc4c3CCNC4)cc12` [Compound 4, N-(1-(4-chlorobenzyl)piperidin-4-yl)-4-methyl-6-(1,2,3,4-tetrahydroisoquinolin-5-yl)quinazolin-2-amine], for which the IC50 was in the range of 5 to 10 µM.

`Cc1nc(NC2CCN(C(=O)c3ccc(Cl)cc3)CC2)nc2ccc(-c3cccc4c3CCNC4)cc12` [Compound 7]: the IC50 was in the range of 5 to 10 µM.

With `CC(=O)N1CCc2c(cccc2-c2ccc3nc(NC4CCN(C(=O)c5ccc(Cl)cc5)CC4)nc(C)c3c2)C1` [Compound 8], the IC50 was in the range of 5 to 10 µM.

In the case of `Cc1nc(N2CCC(N3Cc4ccccc4CC3=O)C2)nc2ccc(-c3cccc4c3OCCO4)cc12` (centres unmarked) [Compound 9], the IC50 was in the range of 5 to 10 µM.

`Cc1nc(N2CC[C@H](N3Cc4ccccc4CC3=O)C2)nc2ccc(-c3cccc4c3OCCO4)cc12` [Compound 10]: the IC50 lay in the range of 5 to 10 µM.

Consider `Cc1nc(NC2CCN(C(=O)c3ccc(Cl)cc3)[C@@H](C)C2)nc2ccc(-c3cccc4c3OCCO4)cc12` (some centres unmarked) [Compound 11], for which the IC50 was 5 to 10 µM.

`Cc1nc(N[C@@H]2CCN(C(=O)c3ccc(Cl)cc3)[C@H](C)C2)nc2ccc(-c3cccc4c3OCCO4)cc12` [Compound 12]: the IC50 lay within 5 to 10 µM.

As to `Cc1ncccc1C(=O)N1CCC(Nc2nc(C)c3cc(-c4cccc5c4OCCO5)ccc3n2)CC1` [Compound 13], the IC50 was below 5 µM.

As for `Cc1nc(NC2CCN(C(=O)c3ccc(F)cc3)CC2)nc2ccc(-c3cccc4c3OCCO4)cc12` [Compound 14], the IC50 is below 5 µM.

`Cc1nc(NC2CCN(C(=O)c3cccc(Cl)c3)CC2)nc2ccc(-c3cccc4c3OCCO4)cc12` [Compound 15]: the IC50 was 5 to 10 µM.

As for `Cc1nc(NC2CCN(C(=O)c3ccccc3Cl)CC2)nc2ccc(-c3cccc4c3OCCO4)cc12` [Compound 16], the IC50 was below 5 µM.

For `COc1ccccc1C(=O)N1CCC(Nc2nc(C)c3cc(-c4cccc5c4OCCO5)ccc3n2)CC1` [Compound 17], the IC50 lay in the range of 5 to 10 µM.

For `Cc1nc(NC2CCN(C(=O)c3ccc(Cl)cc3)CC2)nc2ccc(-c3cccc4[nH]nc(C)c34)cc12` [Compound 18], the IC50 is below 5 µM.

For the molecule `Cc1ccc2ccc(F)c(-c3ccc4nc(NC5CCN(Cc6ccc(F)cc6)CC5)nc(C)c4c3)c2n1` [Compound 19], the IC50 lay within 5 to 10 µM.

Turning to `COc1c(Cl)cc(F)cc1-c1ccc2nc(NC3CCN(Cc4ccc(Cl)cc4)CC3)nc(C)c2c1` [Compound 20], the IC50 is below 5 µM.

With `Cc1nc(NC2CCN(Cc3ccc(Cl)cc3)CC2)nc2ccc(-c3cccc4c3CCCC4)cc12` [Compound 21], the IC50 was below 5 µM.

On to `Cc1nc(NC2CCN(Cc3ccc(Cl)cc3)CC2)nc2ccc(-c3ccnc4ccc(Cl)cc34)cc12` [Compound 22], for which the IC50 fell in the range of 5 to 10 µM.

As to `Cc1nc(NC2CCN(C(=O)c3ccc(Cl)cc3)CC2)nc2ccc(-c3cccc4c3CCCC4)cc12` [Compound 23], the IC50 is below 5 µM.

For `Cc1ccc2[nH]ncc2c1-c1ccc2nc(NC3CCN(Cc4ccc(Cl)cc4)CC3)nc(C)c2c1` [Compound 24], the concentration for half-maximal inhibition (IC50) is below 5 µM.

Take `Cc1nc(NC2CCN(C(=O)c3cccc(Cl)c3)[C@H](C)C2)nc2ccc(-c3cccc4c3OCCO4)cc12` (some centres unmarked) [Compound 25]: the IC50 was in the range of 5 to 10 µM.

Regarding `COc1ccccc1C(=O)N1CCC(Nc2nc(C)c3cc(-c4cccc5c4OCCO5)ccc3n2)C[C@H]1C` (some centres unmarked) [Compound 26], the IC50 lay within 5 to 10 µM.
